In PubChem BioAssay AID2060504 (Molecular Pharmacology Branch, DTP, NCI, 2025):
“And” between values parts separate entries of the source, which are not always exact repeats. Equal values may be shown once.

System: 636577-100-R-J1-PDC complex spheroid viability
Experiment: Anticancer human tumor 636577-100-R-J1-PDC patient-derived endometrial adenocarcinoma cell line growth inhibition [GQUAD]
Settings: for viability, T/C: stronger effect = lower value
Description: DNA G-quadruplex Stabilizer Agents in Combinations in Complex Spheroids
A high-throughput screen of multi-cell type tumor spheroids was designed to identify active combinations of DNA G-quadruplex stabilizer agents and targeted small molecules. Complex spheroids include a stromal component modeled by human endothelial cells (HUVEC) and fibroblasts modeled by human mesenchymal stem cells (MSCs). The concentration ranges selected for each drug and investigational agent were based upon clinically achievable concentrations if the clinical Cmax of the agent was known.
Compounds. The drugs and investigational agents: pidnarulex (CX-5461; NSC782164), APTO-253 (NSC789042), BRACO-19 (NSC847499), peposertib (NSC802822), ceralasertib (NSC780249), elimusertib (NSC800525), camonsertib (NSC841442), AZD-1390 (NSC803789), olaparib (NSC753686), talazoparib (NSC767125), ART-558 (NSC835418), sotorasib (NSC818433), MRTX-1133 (NSC836407), SN-38 (NSC673596), topotecan (NSC609699), etoposide (NSC141540), doxorubicin (NSC123127), gemcitabine (NSC613327), 5-fluorouracil (NSC19893), paclitaxel (NSC125973), vemurafenib (NSC761431), panobinostat (NSC761190), R-306465 (JNJ-16241199; NSC773264), adavosertib (NSC754352), TP-3654 (NSC805149), carboplatin (NSC241240), KSQ-4279 (NSC840948), and staurosporine (NSC755774) were obtained from the National Cancer Institute (NCI) Developmental Therapeutics Program Chemical Repository (34). The FDA-approved anticancer drug set is available from the NCI Developmental Therapeutics Program. […] The stock solutions were prepared in dimethyl sulfoxide (DMSO, Sigma-Aldrich, St. Louis, MO, cat. D2650) at 800-fold the tested concentration and stored at -70 degrees C prior to their use. All drugs and investigational agents were tested over a range starting from a high concentration at or near the clinical Cmax and decreasing in half-log increments. If the clinical Cmax for an agent had not been determined, the highest concentration tested was 10 microM.
2.3 Cell Culture. All cells were maintained in an incubator at 37 degrees C and 5% CO2 with 95% humidity. The PDC lines were cultured according to standard operating procedures established by the NCI PDMR. All PDCs were thawed and cultured in Matrigel-coated flasks prepared with a working solution of 1X Ham's F-12 nutrient mix, without supplementation (Invitrogen, cat. 11765054), 100 U/mL penicillin-streptomycin (Invitrogen, cat. 15140122), and 2.5% Matrigel (Corning Inc., cat. 354248) for the first three passages. The 857933-349-R-J2-PDC line was cultured in 6C/Colon 1B media, which includes advanced DMEM/F-12 (Thermo Fisher Scientific, cat. 12634028), 10 mM HEPES (Thermo Fisher Scientific, cat. 15630080), 1X GlutaMAX supplement (Thermo Fisher Scientific, cat. 35050061), 0.1 mg/mL primocin (InvivoGen, cat. ant-pm-2), 10% defined fetal bovine serum, heat inactivated (HyClone Laboratories Inc., cat. SH30070.03HI), 50% L-WRN conditioned media (ATCC, cat. CRL-3276), 1.25 mM N-Acetyl-L-cysteine (Sigma-Aldrich, cat. A9165), 10 mM nicotinamide (Sigma-Aldrich, cat. N0636), 1X B-27 supplement (Thermo Fisher Scientific, cat. 17504044), 1X N-2 supplement (Thermo Fisher Scientific, cat. 17502048), 10 microM Y-27632 dihydrochloride (Tocris Bioscience, cat. 1254), and 50 ng/mL human EGF recombinant protein (Thermo Fisher Scientific, cat. PHG0311). The 485176-168-R4-J1-PDC line was cultured in Panc media, which includes all 6C/Colon 1B media components plus 100 ng/mL human FGF-10 (Thermo Fisher Scientific, cat. 100-26), 500 nM SB-431542 (Selleckchem, cat. S1067), and gastrin (Tocris, cat. 3006).
[…]
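Also: viability read after seven days of drug exposure.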
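For viability, T/C in this document: luminescence signal used as a proxy for viable cells; 100% = DMSO vehicle control wells.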

| Compound | IC50 (curve of compound) | IC50 (compound alone, run of 03/26/2024) | viability, T/C (compound 0.0316 µM) | viability, T/C (compound 0.1 µM) | viability, T/C (compound 0.316 µM) | viability, T/C (compound 1 µM) | viability, T/C (compound 3.16 µM) | viability, T/C (compound 10 µM) | viability, T/C (compound 0.000999 µM) | viability, T/C (compound 0.00316 µM) | viability, T/C (compound 0.00999 µM) | viability, T/C (compound 0.0999 µM) |
| --- | --- | --- | --- | --- | --- | --- | --- | --- | --- | --- | --- | --- |
| CC(=O)O[C@H]1C(=O)[C@@]2(C)[C@H]([C@H](OC(=O)c3ccccc3)[C@]3(O)C[C@H](OC(=O)[C@H](O)[C@@H](NC(=O)c4ccccc4)c4ccccc4)C(C)=C1C3(C)C)[C@]1(OC(C)=O)CO[C@@H]1C[C@@H]2O | < 31.6 nM | – | 17.6% and 17.3% and 20.3% | 14% and 14.4% and 13.2% | 12.3% and 12.7% and 10.3% | 12.2% and 12% and 10% | 9.72% and 10.1% and 7.81% | 9.54% and 9.71% and 8.27% | – | – | – | – |
| CC1COCCN1c1cc(C2(O)CC3CCC(C2)O3)c2cnn(-c3ccn[nH]3)c2n1 (centres undefined) | < 31.6 nM and 54.1 nM and 36.7 nM | – | 45.5% and 69.8% and 52.9% | 36.3% and 25.4% and 31.3% | 18.9% and 15.5% and 18% | 8.03% and 6.74% and 6.72% | 3.6% and 2.83% and 2.96% | 1.1% and 0.71% and 1.08% | – | – | – | – |
| CC1COCCN1c1cc(C2(S(C)(=N)=O)CC2)nc(-c2ccnc3[nH]ccc23)n1 (centres undefined) | 1040 nM and 2200 nM | – | 90.3% and 97.2% and 58.2% | 91.5% and 90.5% and 90.6% | 93% and 90.3% and 73.6% | 50.8% and 49.6% and 41.9% | 22.6% and 22.4% and 54.3% | 14.2% and 12.7% and 14.7% | – | – | – | – |
| CC[C@@]1(O)C(=O)OCc2c1cc1n(c2=O)Cc2cc3c(CN(C)C)c(O)ccc3nc2-1 | 24.3 nM | – | 40.3% | – | 22% | – | – | – | 85.3% | 80.8% | 82.9% | 19.1% |
| CCc1c2c(nc3ccc(O)cc13)-c1cc3c(c(=O)n1C2)COC(=O)[C@]3(O)CC | < 0.999 nM | – | 22.9% | – | 10.7% | – | – | – | 46.6% | 22.1% | 23.3% | 19.6% |
| CN(C)c1ccc(Nc2c3ccc(NC(=O)CCN4CCCC4)cc3nc3cc(NC(=O)CCN4CCCC4)ccc23)cc1 | – | 2.41 µM [middle of 11 runs] | 104% [middle of 12 runs] | – | – | 82.9% [middle of 12 runs] | 40.7% [middle of 12 runs] | 6.05% [middle of 12 runs] | – | – | – | – |

Continued, in another order:

| IC50 (curve of compound) | IC50 (compound alone, run of 03/26/2024) | Compound | viability, T/C (compound 0.0316 µM) | viability, T/C (compound 0.1 µM) | viability, T/C (compound 0.316 µM) | viability, T/C (compound 1 µM) | viability, T/C (compound 3.16 µM) | viability, T/C (compound 10 µM) | viability, T/C (compound 0.000999 µM) | viability, T/C (compound 0.00316 µM) | viability, T/C (compound 0.00999 µM) | viability, T/C (compound 0.0999 µM) |
| --- | --- | --- | --- | --- | --- | --- | --- | --- | --- | --- | --- | --- |
| > 10000 nM and 4970 nM and 5760 nM | – | C#Cc1c(F)ccc2cc(O)cc(-c3ncc4c(N5CC6CCC(C5)N6)nc(OCC56CCCN5CC(F)C6)nc4c3F)c12 (centres undefined) | 99.5% and 96.3% and 104% | 88.7% and 68.7% and 103% | 77.1% and 102% and 113% | 83% and 87.9% and 71.9% | 66.9% and 56.5% and 70.4% | 49.2% and 39.9% and 35.7% | – | – | – | – |
| > 10000 nM | – | C=CC(=O)N1CCN(c2nc(=O)n(-c3c(C)ccnc3C(C)C)c3nc(-c4c(O)cccc4F)c(F)cc23)C(C)C1 (centres undefined) | 103% and 110% | 55.1% and 117% | 105% | 107% and 90.3% | 72.6% and 85.3% | 70.6% and 66.2% | – | – | – | – |
| 749 nM and 598 nM and 932 nM | – | C=CCn1c(=O)c2cnc(Nc3ccc(N4CCN(C)CC4)cc3)nc2n1-c1cccc(C(C)(C)O)n1 | 85% and 95.4% and 95.7% | 83.5% and 87.5% and 102% | 82.6% and 74.1% and 110% | 39.1% and 30.6% and 46.6% | 16.7% and 15% and 16.4% | 11.8% and 9.58% and 9.6% | – | – | – | – |
| 1790 nM and 2020 nM and 839 nM | – | CC(C)(O)C1CCC(Nc2ccc3ncc(-c4cccc(C(F)(F)F)c4)n3n2)CC1 (centres undefined) | 102% and 104% and 81.5% | 86.4% and 84.5% and 92.3% | 93.7% and 109% and 93.8% | 67.9% and 78.7% and 42.9% | 29.4% and 26.8% and 30.6% | 35.9% and 36.4% and 44.3% | – | – | – | – |
| > 10000 nM and 9660 nM | – | CC(C)n1c(=O)n(C)c2cnc3cc(F)c(-c4ccc(OCCCN5CCCCC5)nc4)cc3c21 | 72.8% and 108% | 97.3% and 87.1% | 90.1% and 107% | 56.6% and 102% | 57.8% and 80.4% | 53.7% and 49% | – | – | – | – |
| 113 nM and 71 nM and 109 nM | – | CC1COCCN1c1cc(-c2ccnn2C)c2ccnc(-c3ccn[nH]3)c2n1 (centres undefined) | 85.1% and 78.3% and 94.5% | 52.2% and 35.1% and 51.9% | 29.6% and 23.1% and 25.6% | 15.7% and 12.7% and 13% | 5.78% and 5.92% and 5.17% | 3.61% and 3.66% and 3.51% | – | – | – | – |
| 8650 nM and 6140 nM and 1700 nM | – | CCCS(=O)(=O)Nc1ccc(F)c(C(=O)c2c[nH]c3ncc(-c4ccc(Cl)cc4)cc23)c1F | 98.3% and 98.1% and 104% | 89.9% and 103% and 86.1% | 109% and 84.8% and 76.3% | 75% and 74.6% and 46.8% | 71.8% and 76.7% and 53.5% | 46.6% and 34.8% and 20.9% | – | – | – | – |
